Test results reported in PubChem BioAssay AID248 (DTP/NCI, 2004).
Where “and” joins values, the source holds several entries; their conditions need not be identical. Equal values may be shown once. Inconclusive results and toxic doses are left out.

Test system: L1210 leukemia ip in BDF1 mice, survival T/C
Assay: NCI In Vivo Anticancer Drug Screen. Data for tumor model L1210 Leukemia (intraperitoneal) in B6D2F1 (BDF1) mice
Settings: endpoint: mean survival time, higher = longer survival
Method in brief: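 Ratio derived from survival: compound-dosed mice over vehicle-dosed mice, all bearing a transplantable tumor.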

[1] = dose: 50.0 mg/kg/injection, schedule: Q01DX001 (ip), vehicle: carboxymethylcellulose (CMC)
[2] = dose: 100.0 mg/kg/injection, schedule: Q01DX001 (ip), vehicle: carboxymethylcellulose (CMC)
[3] = dose: 200.0 mg/kg/injection, schedule: Q01DX001 (ip), vehicle: carboxymethylcellulose (CMC)
[4] = dose: 100.0 mg/kg/injection, schedule: Q01DX001 (ip), vehicle: saline
[5] = dose: 200.0 mg/kg/injection, schedule: Q01DX001 (ip), vehicle: saline
[6] = dose: 400.0 mg/kg/injection, schedule: Q01DX001 (ip), vehicle: saline
[7] = dose: 100.0 mg/kg/injection, schedule: Q01DX009 (ip), vehicle: saline
[8] = dose: 200.0 mg/kg/injection, schedule: Q01DX009 (ip), vehicle: saline
[9] = dose: 400.0 mg/kg/injection, schedule: Q01DX009 (ip), vehicle: saline
[10] = dose: 50.0 mg/kg/injection, schedule: Q01DX009 (ip), vehicle: Klucel (hydroxypropylcellulose) (HPC)
[11] = dose: 100.0 mg/kg/injection, schedule: Q01DX009 (ip), vehicle: Klucel (hydroxypropylcellulose) (HPC)
[12] = dose: 100.0 mg/kg/injection, schedule: Q04DX003 (ip), vehicle: Klucel (hydroxypropylcellulose) (HPC)
[13] = dose: 100.0 mg/kg/injection, schedule: Q04DX003 (ip), vehicle: saline
[14] = dose: 200.0 mg/kg/injection, schedule: Q04DX003 (ip), vehicle: saline
[15] = dose: 200.0 mg/kg/injection, schedule: Q04DX003 (ip), vehicle: saline with Tween-80
[16] = dose: 100.0 mg/kg/injection, schedule: Q01DX001 (ip), vehicle: saline with Tween-80
[17] = dose: 200.0 mg/kg/injection, schedule: Q01DX001 (ip), vehicle: saline with Tween-80
[18] = dose: 400.0 mg/kg/injection, schedule: Q01DX001 (ip), vehicle: saline with Tween-80
[19] = dose: 100.0 mg/kg/injection, schedule: Q04DX003 (ip), vehicle: saline with Tween-80

For `Cc1ccc(NC(=O)NCCCl)cc1`, the T/C [1] was 97 % of control, the T/C [2] was 97 % of control and the T/C [3] was 113 % of control. The T/C (dose: 400.0 mg/kg/injection, schedule: Q01DX001 (ip), vehicle: carboxymethylcellulose (CMC)) was 100 % of control.
With `CC(=O)OC1CCC(NC(=O)N(CCCl)N=O)CC1` (configuration not stated) the T/C (dose: 15.0 mg/kg/injection, schedule: Q01DX001 (ip), vehicle: other) was 225 % of control, the T/C (dose: 30.0 mg/kg/injection, schedule: Q01DX001 (ip), vehicle: other) was 352 % of control and the T/C (dose: 62.0 mg/kg/injection, schedule: Q01DX001 (ip), vehicle: other) was 244 % of control.
With `C[n+]1ccc(Nc2ccc(NC(=O)c3ccc(N)cc3)cc2)cc1` the T/C (dose: 12.5 mg/kg/injection, schedule: Q01DX009 (ip), vehicle: water) was 117 % of control, the T/C (dose: 25.0 mg/kg/injection, schedule: Q01DX009 (ip), vehicle: water) was 107 % of control and the T/C (dose: 50.0 mg/kg/injection, schedule: Q01DX009 (ip), vehicle: water) was 112 % of control.
With `Cc1cccc(C(Cc2ccc(N3C(N)=NC(N)=NC3(C)C)cc2)C(=O)Nc2ccc(S(=O)(=O)F)cc2)c1` (configuration not stated) the T/C [4] was 108 % of control, the T/C [5] was 110 % of control and the T/C [6] was 98 % of control.
In the case of `COC(=O)C(C)C(O)c1ccc(C)cc1` (configuration not stated), the T/C (dose: 50.0 mg/kg/injection, schedule: Q01DX009 (ip), vehicle: saline with Tween-80) is reported as 93 % of control, the T/C (dose: 100.0 mg/kg/injection, schedule: Q01DX009 (ip), vehicle: saline with Tween-80) is reported as 93 % of control and the T/C (dose: 200.0 mg/kg/injection, schedule: Q01DX009 (ip), vehicle: saline with Tween-80) is reported as 93 % of control.
In the case of `CCOc1ccccc1/C=N/N=C(N)N`, the T/C (dose: 63.0 mg/kg/injection, schedule: Q01DX Z (ip), vehicle: carboxymethylcellulose (CMC)) is reported as 95 % of control and the T/C (dose: 125.0 mg/kg/injection, schedule: Q01DX Z (ip), vehicle: carboxymethylcellulose (CMC)) is reported as 95 % of control.
With `CCOC(=O)CP(=O)(OC)c1ccccc1` (configuration not stated) the T/C [7] was 97 % of control, the T/C [8] was 120 % of control and the T/C [9] was 101 % of control.
`O=C(NC(=S)Nc1ccccc1)c1ccc([N+](=O)[O-])cc1` was tested, and the T/C (dose: 75.0 mg/kg/injection, schedule: Q01DX001 (ip), vehicle: carboxymethylcellulose (CMC)) was 98 % of control, the T/C (dose: 150.0 mg/kg/injection, schedule: Q01DX001 (ip), vehicle: carboxymethylcellulose (CMC)) was 90 % of control and the T/C (dose: 300.0 mg/kg/injection, schedule: Q01DX001 (ip), vehicle: carboxymethylcellulose (CMC)) was 101 % of control.
`CCCOC(=O)C(OC(=O)c1ccccc1)C(OC(=O)c1ccccc1)C(=O)OCCC` (configuration not stated) was tested, and the T/C [4] was 104 % of control, the T/C [5] was 96 % of control and the T/C [6] was 94 % of control.
For `c1cc2cc3c(cc2cc1CC1NCCc2cc4c(cc21)OCO4)OCO3` (configuration not stated), the T/C [10] was 88 % of control, the T/C [11] was 101 % of control and the T/C [12] was 100 % of control. For the same compound, the T/C (dose: 200.0 mg/kg/injection, schedule: Q04DX003 (ip), vehicle: Klucel (hydroxypropylcellulose) (HPC)) was 94 % of control.
`Cc1nc(Cl)c(C#N)c(C)c1[N+](=O)[O-]` was tested, and the T/C [13] was 95 % of control and the T/C [14] was 90 % of control.
With `COc1ccc(-c2cc(C(=O)O)c3cc4ccccc4cc3n2)cc1Br` the T/C [11] was 107 % of control, the T/C (dose: 200.0 mg/kg/injection, schedule: Q01DX009 (ip), vehicle: Klucel (hydroxypropylcellulose) (HPC)) was 93 % of control and the T/C (dose: 400.0 mg/kg/injection, schedule: Q01DX009 (ip), vehicle: Klucel (hydroxypropylcellulose) (HPC)) was 105 % of control.
With `CCN1C(C)C1C(C)C` (configuration not stated) the T/C (dose: 25.0 mg/kg/injection, schedule: Q01DX009 (ip), vehicle: Klucel (hydroxypropylcellulose) (HPC)) was 105 % of control, the T/C [10] was 107 % of control and the T/C [11] was 109 % of control. The T/C [12] was 117 % of control.
In the case of `CN(C)c1ccc(/C=N/NC(N)=S)nc1`, the T/C (dose: 5.0 mg/kg/injection, schedule: Q03HX032 (ip), vehicle: saline with Tween-80) is reported as 116 % of control, the T/C (dose: 12.0 mg/kg/injection, schedule: Q03HX032 (ip), vehicle: saline with Tween-80) is reported as 158 % of control and the T/C (dose: 18.0 mg/kg/injection, schedule: Q03HX032 (ip), vehicle: saline with Tween-80) is reported as 188 % of control and 320 % of control. The T/C (dose: 19.0 mg/kg/injection, schedule: Q04DX003 (ip), vehicle: saline with Tween-80) was 110 % of control, the T/C (dose: 44.0 mg/kg/injection, schedule: Q04DX003 (ip), vehicle: saline with Tween-80) was 162 % of control and the T/C (dose: 67.0 mg/kg/injection, schedule: Q04DX003 (ip), vehicle: saline with Tween-80) was 118 % of control. The T/C [15] was 113 % of control.
`Cn1c(=O)c2ncn(CC3CCCCC3)c2n(C)c1=O` was tested, and the T/C [1] was 87 % of control, the T/C [2] was 90 % of control and the T/C [3] was 86 % of control.
With `CCCCC(OC(C)=O)C(OC(C)=O)C(COC(C)=O)NC(C)=O` (configuration not stated) the T/C (dose: 100.0 mg/kg/injection, schedule: Q04DX002 (ip), vehicle: other) was 103 % of control, the T/C (dose: 200.0 mg/kg/injection, schedule: Q04DX002 (ip), vehicle: other) was 97 % of control and the T/C (dose: 400.0 mg/kg/injection, schedule: Q04DX002 (ip), vehicle: other) was 110 % of control.
With `Clc1ccc(C2=CC(c3ccccc3)C3CC23)cc1` (configuration not stated) the T/C [16] was 92 % of control, the T/C [17] was 94 % of control and the T/C [18] was 89 % of control.
With `COC(=O)c1ccc(C(C)=O)cc1` the T/C [16] was 103 % of control, the T/C [17] was 97 % of control and the T/C [18] was 100 % of control.
`Cc1ccc(S(=O)(=O)NC(Cc2ccccc2)C(=O)CCl)cc1` (configuration not stated) was tested, and the T/C [19] was 92 % of control and the T/C [15] was 92 % of control.
`O=C1C(O)=C(c2ccc(Br)cc2)C(=O)C(O)=C1c1ccc(Br)cc1` was tested, and the T/C (dose: 75.0 mg/kg/injection, schedule: Q01DX001 (ip), vehicle: other) was 103 % of control.
With `CC(=O)N(C)c1ccc(N)cc1` the T/C [7] was 104 % of control, the T/C [13] was 100 % of control and the T/C [8] was 98 % of control. The T/C [14] was 105 % of control, the T/C [9] was 93 % of control and the T/C (dose: 400.0 mg/kg/injection, schedule: Q04DX003 (ip), vehicle: saline) was 102 % of control.
In the case of `O=S(=O)(NC(=S)Nc1ccc(Cl)cc1)c1ccccc1`, the T/C [19] is reported as 110 % of control, the T/C [15] is reported as 107 % of control and the T/C (dose: 400.0 mg/kg/injection, schedule: Q04DX003 (ip), vehicle: saline with Tween-80) is reported as 93 % of control.
In the case of `O=C1C(Br)=C(Br)C(=O)c2ccccc21`, the T/C (dose: 50.0 mg/kg/injection, schedule: Q01DX001 (ip), vehicle: saline) is reported as 106 % of control and the T/C [4] is reported as 110 % of control.
With `NC(=O)c1[nH]cnc1N` the T/C [4] was 97 % of control, the T/C [5] was 101 % of control and the T/C [6] was 97 % of control.
With `COc1cc2c(cc1O)C(CCc1cc(OC)c(OC)c(OC)c1)=NCC2` the T/C (dose: 50.0 mg/kg/injection, schedule: Q04DX002 (ip), vehicle: saline) was 101 % of control, the T/C (dose: 100.0 mg/kg/injection, schedule: Q04DX002 (ip), vehicle: saline) was 104 % of control and the T/C (dose: 200.0 mg/kg/injection, schedule: Q04DX002 (ip), vehicle: saline) was 104 % of control.
For `C[C@]12C=CC(=O)C=C1CC[C@H]1[C@@H]3CCC(=O)O[C@@]3(C)CC(=O)[C@@]12F`, the T/C (dose: 50.0 mg/kg/injection, schedule: Q01DX001 (sc), vehicle: steriod suspending solution) was 102 % of control, the T/C (dose: 50.0 mg/kg/injection, schedule: Q01DX009 (sc), vehicle: steriod suspending solution) was 102 % of control and the T/C (dose: 100.0 mg/kg/injection, schedule: Q01DX001 (sc), vehicle: steriod suspending solution) was 104 % of control. The T/C (dose: 100.0 mg/kg/injection, schedule: Q01DX009 (sc), vehicle: steriod suspending solution) was 100 % of control, the T/C (dose: 200.0 mg/kg/injection, schedule: Q01DX001 (sc), vehicle: steriod suspending solution) was 107 % of control and the T/C (dose: 200.0 mg/kg/injection, schedule: Q01DX009 (sc), vehicle: steriod suspending solution) was 97 % of control. The T/C (dose: 400.0 mg/kg/injection, schedule: Q01DX001 (sc), vehicle: steriod suspending solution) was 113 % of control and the T/C (dose: 400.0 mg/kg/injection, schedule: Q01DX009 (sc), vehicle: steriod suspending solution) was 100 % of control.
